The values that follow come from patent publication US20240269146A1, “USE OF PELABRESIB FOR TREATING ANEMIAS” (Constellation Pharmaceuticals, Inc., priority 2021, published 2024).

A short description of the test: Pelabresib Form A monohydrate administered to human subjects with myelofibrosis, with or without ruxolitinib (FIG. 1). In kind it is in vivo. To be noted: median starting dose 125 mg QD, max 225 mg QD, median duration 47 weeks. Here is the method:
Pelabresib Form A monohydrate was administered to human subjects (with or without ruxolitinib) with a median starting dose of 125 mg QD and a max dose of 225 mg QD for a median duration of 47 weeks. The results of this study are shown in FIG. 1 (Arm 1 being pelabresib Form A and Arm 2 being pelabresib Form A in combination with ruxolitinib).

“Also recorded” adds a separate entry of the source.

In the case of `Cc1noc2c1-c1ccccc1C(c1ccc(Cl)cc1)=N[C@H]2CC(N)=O` [pelabresib, 2-((4S)-6-(4-chlorophenyl)-1-methyl-4H-benzo[c]isoxazolo[4,5-e]azepin-4-yl)acetamide], the hemoglobin result was “improving hemoglobin” and the “reticulocyte count (number of reticulocytes)” value is reported as “increases the number of reticulocytes; also recorded: effective in increasing reticulocytes”.
